Assay results published in patent US20120035175A1, “Novel salts as Anti-Inflammatory, Immunomodulatory and Anti-Proliferatory Agents” (4SC AG, priority 2010, published 2012).
Where two headings read alike, the source gives them in different places.

Legend:
[1] = Dynamic vapor sorption (water uptake); type: physicochemical; conditions: for % water uptake at 85% r.h.: about 85% r.h.
Description: DVS (SMS): Surface Measurement Systems Ltd. DVS-1 water vapour sorption analyzer. The sample is placed on a platinum sample pan and allowed to equilibrate at a given relative humidity (r.h.), usually 50% r.h. Then, a pre-defined humidity program was started with a scanning rate of 5% r.h. change per hour. First step: from 50% r.h. to 0% r.h. (in case of a possibly hydrate as starting material 50 to 95% r.h.), second step: from 0% to 95% r.h. (in case of a possibly hydrate as starting material 95 to 0% r.h.)

recombinant murine DHODH = target: T1, recombinant murine DHODH (Mus musculus, UniProt O35435); assay: Inhibition assay of DHODH activity (murine enzyme); type: biochemical; conditions: class symbols, key in nM
T1 construct: Prof; M. Löffler, Marburg, Germany (gift)
T1 sequence (O35435 whole entry): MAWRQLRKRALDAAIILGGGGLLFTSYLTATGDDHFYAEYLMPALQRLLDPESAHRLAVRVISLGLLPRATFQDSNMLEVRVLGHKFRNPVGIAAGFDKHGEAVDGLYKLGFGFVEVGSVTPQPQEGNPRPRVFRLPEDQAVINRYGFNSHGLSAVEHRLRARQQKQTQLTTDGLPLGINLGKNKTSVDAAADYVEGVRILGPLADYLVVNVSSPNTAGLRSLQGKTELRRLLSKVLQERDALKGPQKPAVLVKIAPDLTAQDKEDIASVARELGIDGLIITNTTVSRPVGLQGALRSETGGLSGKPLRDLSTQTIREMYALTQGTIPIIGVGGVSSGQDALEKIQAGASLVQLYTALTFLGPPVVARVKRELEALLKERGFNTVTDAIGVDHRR
Description: (§1) The standard assay mixture contained 50 μM decyclo ubichinone, 100 μM dihydroorotate, 60 μM 2,6-dichloroindophenol, as well as 20 mU DHODH. The volume activity of the recombinant enzyme used was 30 U/ml. Measurements were conducted in 50 mM TrisHCl (150 mM KCl, 0.1% Triton X-100, pH 8.0) at 30° C. in a final volume of 1 ml. The components were mixed, and the reaction was started by adding dihydroorotate. The course of reaction was followed by spectrophotometrically measuring the decrease in absorption at 600 nm for […].
(§2) Inhibitory studies were conducted in a standard assay with additional variable amounts of inhibitor. […] These investigations were carried out with recombinant human as well as with recombinant murine DHODH provided by Prof. M. Löffler, Marburg, Germany [M. Löffler, Chem. Biol. Interact.

recombinant human DHODH = target: T2, recombinant human DHODH (Homo sapiens, UniProt Q02127); assay: Inhibition assay of DHODH activity (human enzyme); type: biochemical
T2 construct: Prof; M. Löffler, Marburg, Germany (gift)
T2 sequence (Q02127 whole entry): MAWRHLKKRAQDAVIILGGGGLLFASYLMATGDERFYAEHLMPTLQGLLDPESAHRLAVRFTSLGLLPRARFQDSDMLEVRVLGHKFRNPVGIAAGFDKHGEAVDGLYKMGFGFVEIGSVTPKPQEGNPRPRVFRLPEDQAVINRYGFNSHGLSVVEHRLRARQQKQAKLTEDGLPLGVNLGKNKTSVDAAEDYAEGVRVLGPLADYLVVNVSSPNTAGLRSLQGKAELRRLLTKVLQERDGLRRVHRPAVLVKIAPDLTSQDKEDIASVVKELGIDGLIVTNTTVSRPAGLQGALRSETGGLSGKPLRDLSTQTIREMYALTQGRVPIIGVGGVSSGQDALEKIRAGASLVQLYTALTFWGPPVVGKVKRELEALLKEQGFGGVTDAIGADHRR
Description: as §1, §2

[2] = Long-term stability, 18 months storage, HPLC; type: physicochemical
Description: HPLC: HPLC was performed with a Dionex UltiMate® 3000 liquid chromatograph comprising a solvent Rack, a vacuum degasser, a binary pump (mikro), a static mixer (500 μl), an autosampler, a 25 μl sample loop, a 100 μl syringe, a column oven and a DAD detector (semimicro measuring cell), which was set up for UV analysis. Data analysis was done with Chromeleon® 6.80 SP3. Compounds were separated at 30° C. on a Phenomenex Onyx™ Monolithic C18 50×2 mm column. The injection volume was 2 μl and the detection wavelength was 305 nm. As mobile phase, a gradient of 0.1% formic acid in HPLC grade water/acetonitrile was used, starting at a concentration of 5% acetonitrile. The starting concentration was held for 1 minute, then the gradient was ramped linearly to 95% acetonitrile over the course of 2 min, held for 0.7 min at 95% acetonitrile, after which it was returned to 5% acetonitrile within 0.1 min and kept constant for 0.7 min to re-equilibrate the column. The mobile phase flow rate was 1.5 ml/min.
The compounds were stored for 18 months at ambient conditions (20-25° C., 30-60% relative humidity) and subsequently analysed by HPLC for purity.

[3] = Aqueous solubility and pH of the saturated solution; type: physicochemical
Description: Solubility: Solubility was determined by a stepwise addition of 0.05 mL portions of solvent to a suspension of 10 mg of sample in 0.05 mL of solvent.
The aqueous solubility of the respective compound was determined by HPLC, and the pH of the resulting saturated solution was measured. For each compound tested, a suspension was prepared and equilibrated for 24 hours at 25° C. The suspension was filtered, the filtrate was diluted and analysed by HPLC.

| SMILES | IC50 (recombinant murine DHODH) | also measured |
| --- | --- | --- |
| COc1cccc(-c2ccc(NC(=O)C3=C(C(=O)[O-])CCC3)c(F)c2)c1.[K+] [K salt] |  | % water uptake at 95% r.h. [1]: Ca. 1%; % water uptake at 85% r.h. [1]: Ca. 0.5% |
| O=C(O)C1=C(C(=O)Nc2ccc(-c3ccccc3Cl)cc2)CCC1 [Compound 14, 2-((2′-chloro-[1,1′-biphenyl]-4-yl)carbamoyl)cyclopent-1-enecarboxylic acid] | > 1500 nM |  |
| O=C(O)C1=C(C(=O)Nc2ccc(OCc3c(F)cccc3Cl)c(Cl)c2)CCC1 [Compound 69, 2-((3-chloro-4-((2-chloro-6-fluorobenzyl)oxy)phenyl)carbamoyl)cyclopent-1-enecarboxylic acid] | < 800 nM | IC50 (recombinant human DHODH): < 800 nM |
| CCNCC.COc1cccc(-c2ccc(NC(=O)C3=C(C(=O)O)CCC3)c(F)c2)c1 [Diethylamine (DEA) salt] |  | % water uptake at 95% r.h. [1]: 0.5%; % water uptake at 85% r.h. [1]: 0.2%; Peak area ([2]; HPLC after 18 months storage at ambient conditions (20-25° C., 30-60% relative humidity)): >99%; Occurrence of hydrolysis product in HPLC after 18 months storage ([2]; ambient conditions (20-25° C., 30-60% relative humidity), LOD for hydrolysis product: 0.1 μg/ml): Below LOD* |
| Cc1cccc(Sc2ccc(NC(=O)C3=C(C(=O)O)CCC3)cc2)c1 [Compound 42, 2-((4-(m-tolylthio)phenyl)carbamoyl)cyclopent-1-enecarboxylic acid] | < 800 nM |  |
| COc1ccccc1-c1c(F)c(F)c(NC(=O)C2=C(C(=O)O)CCC2)c(F)c1F [Compound 56, 2-((2,3,5,6-tetrafluoro-2′-methoxy-[1,1′-biphenyl]-4-yl)carbamoyl)cyclopent-1-enecarboxylic acid] | < 800 nM |  |
| COc1cccc(-c2ccc(NC(=O)C3=C(C(=O)[O-])CCC3)c(F)c2)c1.COc1cccc(-c2ccc(NC(=O)C3=C(C(=O)[O-])CCC3)c(F)c2)c1.[Mg+2] [Mg salt] |  | % water uptake at 95% r.h. [1]: Ca. 10%; % water uptake at 85% r.h. [1]: Ca. 5% |
| O=C(O)C1=C(C(=O)Nc2ccc(OCc3ccccc3)c(Cl)c2)CCC1 [Compound 72, 2-((4-(benzyloxy)-3-chlorophenyl)carbamoyl)cyclopent-1-enecarboxylic acid] | 800 to 1500 nM |  |
| O=C(O)C1=C(C(=O)Nc2cc(Br)c(OCc3ccccc3)c(Br)c2)CSC1 [Compound 29, 4-((4-(benzyloxy)-3,5-dibromophenyl)carbamoyl)-2,5-dihydrothiophene-3-carboxylic acid] | > 1500 nM |  |
| COc1ccccc1-c1ccc(NC(=O)C2=C(C(=O)O)CCC2)c(C)c1 [Compound 57, 2-((2′-methoxy-3-methyl-[1,1′-biphenyl]-4-yl)carbamoyl)cyclopent-1-enecarboxylic acid] | 800 to 1500 nM |  |
| O=C(O)C1=C(C(=O)Nc2cc(Br)c(OCc3ccc(F)c(F)c3)c(Br)c2)CCC1 [Compound 25, 2-((3,5-dibromo-4-((3,4-difluorobenzyl)oxy)phenyl)carbamoyl)cyclopent-1-enecarboxylic acid] |  | IC50 (recombinant human DHODH; recombinant human DHODH, class symbols, key in nM, read-out: human IC50-Value): < 800 nM |
| O=C(O)C1=C(C(=O)Nc2ccc(OCc3ccccc3F)c(Cl)c2)CCC1 [Compound 74, 2-((3-chloro-4-((2-fluorobenzyl)oxy)phenyl)carbamoyl)cyclopent-1-enecarboxylic acid] | < 800 nM |  |
| O=C(O)C1=C(C(=O)Nc2ccc(-c3ccccc3F)cc2)CCC1 [Compound 13, 2-((2′-fluoro-[1,1′-biphenyl]-4-yl)carbamoyl)cyclopent-1-enecarboxylic acid] | > 1500 nM |  |
| [O-][n+]1ccccc1[S-].[O-][n+]1ccccc1[S-].[Zn+2] [Zinc salt] |  | % water uptake at 95% r.h. [1]: 5.5%; % water uptake at 85% r.h. [1]: 4%; Solubility ([3]; aqueous, suspension equilibrated for 24 hours at 25° C.): 950 µg/mL; pH ([3]; pH of the resulting saturated solution): 6.3 |
| COc1cccc(-c2ccc(NC(=O)C3=C(C(=O)O)CCC3)c(F)c2)c1.N=C(N)NCCCC(N)C(=O)O [L-Arginine salt] |  | % water uptake at 95% r.h. [1]: >12%; % water uptake at 95% r.h. ([1]; listed as arginine salt): > 12%; % water uptake at 85% r.h. [1]: 1.7% |
| O=C(O)C1=C(C(=O)Nc2ccc(-c3ccccc3Cl)cc2)CSC1 [Compound 41, 4-((2′-chloro-[1,1′-biphenyl]-4-yl)carbamoyl)-2,5-dihydrothiophene-3-carboxylic acid] | > 1500 nM |  |
| COc1ccccc1-c1cc(Cl)c(NC(=O)C2=C(C(=O)O)CCC2)c(Cl)c1 [Compound 58, 2-((3,5-dichloro-2′-methoxy-[1,1′-biphenyl]-4-yl)carbamoyl)cyclopent-1-enecarboxylic acid] | 800 to 1500 nM |  |
| O=C(O)C1=C(C(=O)Nc2ccc(-c3cccc(F)c3)cc2F)CCC1 [Compound 27, 2-((3,3′-difluoro-[1,1′-biphenyl]-4-yl)carbamoyl)cyclopent-1-enecarboxylic acid] | > 1500 nM |  |
| COc1ccccc1-c1ccc(NC(=O)C2=C(C(=O)O)CCC2)cc1Cl [Compound 54, 2-((2-chloro-2′-methoxy-[1,1′-biphenyl]-4-yl)carbamoyl)cyclopent-1-enecarboxylic acid] | 800 to 1500 nM |  |
| O=C(O)C1=C(C(=O)Nc2ccc(OCc3ccccc3C(F)(F)F)c(Cl)c2)CCC1 [Compound 68, 2-((3-chloro-4-((2-(trifluoromethyl)benzyl)oxy)phenyl)carbamoyl)cyclopent-1-enecarboxylic acid] | > 1500 nM |  |
| COc1cccc(-c2ccc(NC(=O)C3=C(C(=O)[O-])CCC3)c(F)c2)c1.[Na+] [Na salt] |  | % water uptake at 95% r.h. [1]: Ca. 7.5%; % water uptake at 85% r.h. [1]: Ca. 5% |
| COc1ccccc1-c1ccc(NC(=O)C2=C(C(=O)O)CCC2)c(Cl)c1 [Compound 53, 2-((3-chloro-2′-methoxy-[1,1′-biphenyl]-4-yl)carbamoyl)cyclopent-1-enecarboxylic acid] | 800 to 1500 nM |  |
| COc1ccc(-c2cc(F)c(NC(=O)C3=C(C(=O)O)CCC3)c(F)c2)c(OC)c1 [Compound 67, 2-((3,5-difluoro-2′,4′-dimethoxy-[1,1′-biphenyl]-4-yl)carbamoyl)cyclopent-1-enecarboxylic acid] | > 1500 nM |  |
| CCOc1ccccc1-c1cc(F)c(NC(=O)C2=C(C(=O)O)CCC2)c(F)c1 [Compound 62, 2-((2′-ethoxy-3,5-difluoro-[1,1′-biphenyl]-4-yl)carbamoyl)cyclopent-1-enecarboxylic acid] | 800 to 1500 nM |  |
| CCOc1cccc(-c2ccc(NC(=O)C3=C(C(=O)O)CCC3)c(F)c2)c1 [Compound 46, 2-((3′-ethoxy-3-fluoro-[1,1′-biphenyl]-4-yl)carbamoyl)cyclopent-1-enecarboxylic acid] | > 1500 nM |  |
| CCOc1cccc(-c2cc(F)c(NC(=O)C3=C(C(=O)O)CCC3)c(F)c2)c1 [Compound 63, 2-((3′-ethoxy-3,5-difluoro-[1,1′-biphenyl]-4-yl)carbamoyl)cyclopent-1-enecarboxylic acid] | 800 to 1500 nM |  |
| O=C(O)C1=C(C(=O)Nc2ccc(Oc3ccccc3)cc2)CCC1 [Compound 50, 2-((4-phenoxyphenyl)carbamoyl)cyclopent-1-enecarboxylic acid] | < 800 nM |  |
| O=C(O)C1=C(C(=O)Nc2cc(Br)c(OCc3cc(F)ccc3F)c(Br)c2)CCC1 [Compound 24, 2-((3,5-dibromo-4-((2,5-difluorobenzyl)oxy)phenyl)carbamoyl)cyclopent-1-enecarboxylic acid] | 800 to 1500 nM |  |
| O=C(O)C1=C(C(=O)Nc2c(F)cc(-c3ccccc3F)cc2F)CCC1 [Compound 66, 2-((2′,3,5-trifluoro-[1,1′-biphenyl]-4-yl)carbamoyl)cyclopent-1-enecarboxylic acid] | 800 to 1500 nM |  |
| COc1ccc(-c2ccc(NC(=O)C3=C(C(=O)O)CCC3)cc2Cl)cc1 [Compound 19, 2-((2-chloro-4′-methoxy-[1,1′-biphenyl]-4-yl)carbamoyl)cyclopent-1-enecarboxylic acid] | < 800 nM |  |
